Experimental data published in patent US20050215551A1, “1-[2H-1-benzopyran-2-one-8-yl]- piperazine derivatives for the treatment of movement disorders” (SOLVAY PHARMACEUTICALS B.V., priority 2004, published 2005).
Read-outs that look alike come from different tables or passages of the source.

How the values were obtained:
Dopaminereuptake = Dopaminereuptake (Homo sapiens, UniProt Q01959); assay: Binding Dopamine reuptake; conditions: radioligand [3H]-GBR 12935, read-out: Ki(nM) Compound 1
Method: (§1) Receptor binding data were obtained by CEREP (128, rue Danton, 92500 Rueil-Malmaison, France) or at Solvay Pharmaceuticals B.V., using well documented standard procedures. Affinity for 5-HT1A receptors for instance, was determined by testing the ability of the compounds of the invention to displace [^3H]-2-(di-n-propylamino)-8-hydroxytetralin ([^3H]-8-OH-DPAT) from its specific binding sites in rat frontal cortex homogenates. This test is based on the method described by Gozlan et al. (Nature, 305, (1983), pages 140-142).
(§2) The binding data collected in the table below were either obtained by CEREP (128, rue Danton, 92500 Rueil-Malmaison, France) or at Solvay Pharmaceuticals B.V., using well documented standard procedures.

Neuropeptide Y1 = Neuropeptide Y1 (Homo sapiens, UniProt P25929); assay: Receptor binding Neuropeptide Y1; conditions: radioligand [125I]-PYY, read-out: Ki(nM) Compound 1
Sequence of Neuropeptide Y1 (P25929 whole entry): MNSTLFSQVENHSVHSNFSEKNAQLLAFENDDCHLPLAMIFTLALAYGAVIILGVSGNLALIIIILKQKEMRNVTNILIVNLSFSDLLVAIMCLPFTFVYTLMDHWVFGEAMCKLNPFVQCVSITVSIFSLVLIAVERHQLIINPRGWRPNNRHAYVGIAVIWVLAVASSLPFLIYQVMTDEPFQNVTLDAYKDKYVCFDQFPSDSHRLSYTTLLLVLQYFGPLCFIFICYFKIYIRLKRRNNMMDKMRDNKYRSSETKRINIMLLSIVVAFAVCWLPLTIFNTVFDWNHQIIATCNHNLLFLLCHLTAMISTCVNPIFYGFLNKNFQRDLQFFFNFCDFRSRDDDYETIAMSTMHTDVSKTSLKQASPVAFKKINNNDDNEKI
Method: as §1, §2

κ-opiate = κ-opiate (Rattus norvegicus, UniProt P34975); assay: Receptor binding κ-opiate; conditions: radioligand [3H]-U 69593, read-out: Ki(nM) Compound 1
Sequence of κ-opiate (P34975 whole entry): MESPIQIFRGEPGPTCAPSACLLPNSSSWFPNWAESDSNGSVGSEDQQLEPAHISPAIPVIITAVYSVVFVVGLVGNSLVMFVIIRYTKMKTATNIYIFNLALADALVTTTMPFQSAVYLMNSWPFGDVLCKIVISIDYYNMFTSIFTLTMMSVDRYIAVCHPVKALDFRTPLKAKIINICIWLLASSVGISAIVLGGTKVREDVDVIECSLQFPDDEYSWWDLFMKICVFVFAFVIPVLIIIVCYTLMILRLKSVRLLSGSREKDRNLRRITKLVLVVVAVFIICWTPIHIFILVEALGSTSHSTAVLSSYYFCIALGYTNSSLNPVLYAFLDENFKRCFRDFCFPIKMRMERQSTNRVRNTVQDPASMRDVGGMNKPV
Method: as §1, §2

5-HT4 = 5-HT4 (Homo sapiens, UniProt Q13639); assay: Receptor binding 5-HT4; conditions: radioligand [3H]-GR 113808, read-out: Ki(nM) Compound 1
Sequence of 5-HT4 (Q13639 whole entry): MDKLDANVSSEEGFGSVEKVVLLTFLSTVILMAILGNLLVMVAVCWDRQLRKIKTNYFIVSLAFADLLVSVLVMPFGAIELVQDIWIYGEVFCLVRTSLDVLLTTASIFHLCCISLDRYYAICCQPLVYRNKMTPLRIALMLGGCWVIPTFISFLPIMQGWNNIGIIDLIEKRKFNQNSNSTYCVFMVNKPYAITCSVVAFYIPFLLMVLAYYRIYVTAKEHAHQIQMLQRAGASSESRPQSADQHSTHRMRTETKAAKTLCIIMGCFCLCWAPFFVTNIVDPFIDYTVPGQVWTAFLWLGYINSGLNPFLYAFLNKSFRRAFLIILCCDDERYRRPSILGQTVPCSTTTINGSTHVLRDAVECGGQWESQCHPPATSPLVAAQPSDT
Method: as §1, §2

LTB4 = LTB4 (Cavia porcellus, UniProt H0VYV8); assay: Receptor binding LTB4; conditions: radioligand [3H]-LTB4; guinea pig; read-out: Ki(nM) Compound 1
Sequence of LTB4 (H0VYV8 1-348): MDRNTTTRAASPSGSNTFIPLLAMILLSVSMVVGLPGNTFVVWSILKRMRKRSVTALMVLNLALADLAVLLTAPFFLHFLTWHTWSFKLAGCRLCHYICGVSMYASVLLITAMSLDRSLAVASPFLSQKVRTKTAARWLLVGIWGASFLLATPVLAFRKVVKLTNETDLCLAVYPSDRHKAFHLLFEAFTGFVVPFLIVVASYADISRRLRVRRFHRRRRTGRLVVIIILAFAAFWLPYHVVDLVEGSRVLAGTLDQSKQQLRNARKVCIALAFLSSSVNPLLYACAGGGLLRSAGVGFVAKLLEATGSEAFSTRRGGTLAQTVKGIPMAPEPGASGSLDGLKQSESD
Method: as §1, §2

Endothelin-ETB = Endothelin-ETB (Homo sapiens, UniProt P24530); assay: Receptor binding Endothelin-ETB; conditions: radioligand [125I]-endothelin-1, read-out: Ki(nM) Compound 1
Sequence of Endothelin-ETB (P24530 27-442): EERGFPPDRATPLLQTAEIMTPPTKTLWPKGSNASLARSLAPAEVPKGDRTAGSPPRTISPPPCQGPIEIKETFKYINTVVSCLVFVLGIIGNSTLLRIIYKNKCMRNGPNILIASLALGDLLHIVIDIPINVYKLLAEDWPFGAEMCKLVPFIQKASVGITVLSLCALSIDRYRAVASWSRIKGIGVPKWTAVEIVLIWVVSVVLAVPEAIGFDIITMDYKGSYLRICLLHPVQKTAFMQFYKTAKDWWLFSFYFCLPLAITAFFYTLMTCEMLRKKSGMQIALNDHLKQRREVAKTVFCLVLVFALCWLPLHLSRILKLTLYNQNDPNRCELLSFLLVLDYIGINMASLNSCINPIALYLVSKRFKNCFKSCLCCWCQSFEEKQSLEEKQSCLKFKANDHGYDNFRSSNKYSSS
Method: as §1, §2

α1B-adrenergic = α1B-adrenergic (Rattus norvegicus, UniProt P15823); assay: Receptor binding α1B-adrenergic; conditions: radioligand [3H]-prazosin, read-out: Ki(nM) Compound 1
Method: as §1, §2

Dopamine-D1 = Dopamine-D1 (Homo sapiens, UniProt P21728); assay: Receptor binding Dopamine-D1; conditions: radioligand [3H]-SCH 23390, read-out: Ki(nM) Compound 1
Sequence of Dopamine-D1 (P21728 whole entry): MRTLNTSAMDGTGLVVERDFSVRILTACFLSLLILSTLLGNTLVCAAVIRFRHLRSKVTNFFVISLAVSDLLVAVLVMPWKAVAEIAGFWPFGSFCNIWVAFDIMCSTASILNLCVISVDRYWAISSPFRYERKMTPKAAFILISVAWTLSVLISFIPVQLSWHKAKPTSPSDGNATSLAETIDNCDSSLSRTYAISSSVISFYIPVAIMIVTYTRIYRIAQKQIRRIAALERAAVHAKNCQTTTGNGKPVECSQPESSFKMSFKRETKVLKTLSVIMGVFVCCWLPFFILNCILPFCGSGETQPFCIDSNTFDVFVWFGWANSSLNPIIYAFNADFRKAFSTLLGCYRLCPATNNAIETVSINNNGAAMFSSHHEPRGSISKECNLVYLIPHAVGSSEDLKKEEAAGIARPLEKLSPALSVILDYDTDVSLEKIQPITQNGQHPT
Method: as §1, §2

5-HTreuptake = 5-HTreuptake (Homo sapiens, UniProt P31645); assay: Binding 5-HT reuptake; conditions: radioligand [3H]-paroxetine, read-out: Ki(nM) Compound 1
Sequence of 5-HTreuptake (P31645 whole entry): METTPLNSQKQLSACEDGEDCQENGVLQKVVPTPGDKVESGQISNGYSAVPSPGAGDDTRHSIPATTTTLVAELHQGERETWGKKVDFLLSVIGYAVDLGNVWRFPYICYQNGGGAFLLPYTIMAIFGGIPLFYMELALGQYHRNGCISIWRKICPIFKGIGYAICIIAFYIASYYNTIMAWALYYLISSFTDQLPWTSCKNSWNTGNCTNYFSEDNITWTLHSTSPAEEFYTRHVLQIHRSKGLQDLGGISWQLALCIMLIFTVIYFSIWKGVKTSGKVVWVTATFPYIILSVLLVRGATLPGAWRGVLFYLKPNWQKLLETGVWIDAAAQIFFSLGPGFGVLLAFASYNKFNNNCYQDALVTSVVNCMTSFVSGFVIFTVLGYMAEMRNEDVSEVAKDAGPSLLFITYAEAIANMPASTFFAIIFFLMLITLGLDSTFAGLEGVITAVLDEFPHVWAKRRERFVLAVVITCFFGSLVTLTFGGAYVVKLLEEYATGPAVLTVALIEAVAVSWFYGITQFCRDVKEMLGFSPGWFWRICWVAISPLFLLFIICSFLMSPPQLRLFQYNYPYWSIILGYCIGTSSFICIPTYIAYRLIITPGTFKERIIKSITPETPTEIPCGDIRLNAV
Method: as §1, §2

Dopamine-D4 = Dopamine-D4 (Homo sapiens, UniProt P21917); assay: Receptor binding Dopamine-D4; conditions: radioligand [3H]-spiperone, read-out: Ki(nM) Compound 1
Method: as §1, §2

DBA/2 mice = assay: Anticonvulsant activity: audiogenic seizures in DBA/2 mice; format: in vivo; conditions: for ED50: Mus musculus; for behavioural changes: all dosages tested
Description: DBA/2 mice weighing 6-12 g (22-26 days old; either sex, Harlan Italy Correzzana, Milano, Italy) are housed in groups of 8-10 under a 12-h light/dark cycle (lights on at 7:00 a.m.) with food and water available ad libitum. The experimental protocol is approved by University of Catanzaro Ethical Committee. All procedures are in compliance with the Nationals Institutes of Health Guide for Care and Use of Laboratory Animals (Publication No. 85-23, revised 1985) and European Communities Council Directive of 24 Nov. 1986 (86/609 EEC).
The experiments are performed according to the method previously described by De Sarro et al. (1984), Eur. J. Pharmacol., 104, 55-60. Compounds of the invention or vehicle (controls) are given intraperitoneally (i.p.) and orally (p.o.) as freshly sonicated solutions in methylcellulose 1%. For the […]; pretreatment time at 30 and 60 min., For oral treatment, all animals are pretreated either at 30 or 60 min using the compounds of the invention at doses of 0.1, 0.3, 3, 6 and 10 mg/kg p.o. At least 10 mice per dose are used. After pretreatment time, each mouse is placed under a hemispheric perspex dome (58 cm in diameter) and 1 min is allowed for habituation and assessment of locomotor activity. Animals are challenged with a 12-16 kHz sinusoidal tone at 109 dB. Seizure response is assessed by two independent observers. The sound evoked behaviour is coded using the following scale: 0=no response, 1=wild running, 2=clonus, 3=tonic flexor and/or extensor; 4=respiratory arrest, on the basis of the concordant opinion of the observers. […] The maximum response is recorded for each animal. Rectal temperature is recorded immediately prior to auditory testing using an Elektrolaboratoriet thermometer type T.E.3. Behavioral changes are observed during the period between drug administration and auditory testing. In these experiments separate vehicle-treated and drug-treated groups are used at each pretreatment time (15 min-60 min). Percentage of mice showing wild running, clonic or tonic phase and the duration of anticonvulsant activity are compared to control group and statistically analyzed.
Statistical comparison between groups of control and drug-treated DBA/2 mice is made using Fisher's exact probability test (incidence of the seizure phases). The percentage incidence of each phase of the audiogenic seizure is determined for each drug. These values are plotted against the corresponding doses by a computer construction of the dose-effect curves for calculation of ED50 (with 95% confidence limits). The ED50 values for each compound are calculated using a computer program of the method of Litchfield and Wilcoxon (1949). At least 32 animals are used to calculate each ED50 value.
For systemic injections and oral administrations, all compounds are given intraperitoneally (0.1 ml/10 g of body weight of the mouse) as a freshly prepared solution in methylcellulose 1%. In order to avoid the light sensitivity, weighing and handling are carried out under sodium vapor lamps and the substances are protected from light during the experiments.

Neuropeptide Y2 = Neuropeptide Y2 (Homo sapiens, UniProt P49146); assay: Receptor binding Neuropeptide Y2; conditions: radioligand [125I]-PYY, read-out: Ki(nM) Compound 1
Sequence of Neuropeptide Y2 (P49146 whole entry): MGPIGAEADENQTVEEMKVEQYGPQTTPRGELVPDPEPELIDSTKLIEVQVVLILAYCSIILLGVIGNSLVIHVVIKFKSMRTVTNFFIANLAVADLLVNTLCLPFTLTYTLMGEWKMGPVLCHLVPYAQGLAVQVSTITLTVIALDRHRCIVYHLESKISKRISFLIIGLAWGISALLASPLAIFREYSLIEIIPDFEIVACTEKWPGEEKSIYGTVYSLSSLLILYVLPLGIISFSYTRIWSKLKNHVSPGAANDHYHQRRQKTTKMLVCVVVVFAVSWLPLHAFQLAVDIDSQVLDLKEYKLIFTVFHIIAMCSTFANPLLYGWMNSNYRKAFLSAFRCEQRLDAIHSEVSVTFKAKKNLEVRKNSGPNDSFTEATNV
Method: as §1, §2

5-HT1A = 5-HT1A (Homo sapiens, UniProt P08908); assay: Receptor binding 5-HT1A; conditions: radioligand [3H]-8-OH-DPAT, read-out: Ki(nM) Compound 1
Sequence of 5-HT1A (P08908 whole entry): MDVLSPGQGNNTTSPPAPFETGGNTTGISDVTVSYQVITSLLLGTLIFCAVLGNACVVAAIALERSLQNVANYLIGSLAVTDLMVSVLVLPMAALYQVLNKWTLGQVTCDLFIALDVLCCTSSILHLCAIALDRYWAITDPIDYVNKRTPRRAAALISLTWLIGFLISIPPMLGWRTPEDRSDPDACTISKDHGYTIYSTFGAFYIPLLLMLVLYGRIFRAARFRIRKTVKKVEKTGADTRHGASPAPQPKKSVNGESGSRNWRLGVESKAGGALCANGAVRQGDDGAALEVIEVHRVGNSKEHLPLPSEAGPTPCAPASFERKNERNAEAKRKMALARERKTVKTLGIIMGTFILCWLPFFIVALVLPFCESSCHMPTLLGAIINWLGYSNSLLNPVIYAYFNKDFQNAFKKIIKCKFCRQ

5-HT2B = 5-HT2B (Homo sapiens, UniProt P41595); assay: Receptor binding 5-HT2B; conditions: radioligand [3H]-LSD, read-out: Ki(nM) Compound 1
Method: as §1, §2

Endothelin-ETA = Endothelin-ETA (Homo sapiens, UniProt P25101); assay: Receptor binding Endothelin-ETA; conditions: radioligand [125I]-endothelin-1, read-out: Ki(nM) Compound 1
Sequence of Endothelin-ETA (P25101 21-427): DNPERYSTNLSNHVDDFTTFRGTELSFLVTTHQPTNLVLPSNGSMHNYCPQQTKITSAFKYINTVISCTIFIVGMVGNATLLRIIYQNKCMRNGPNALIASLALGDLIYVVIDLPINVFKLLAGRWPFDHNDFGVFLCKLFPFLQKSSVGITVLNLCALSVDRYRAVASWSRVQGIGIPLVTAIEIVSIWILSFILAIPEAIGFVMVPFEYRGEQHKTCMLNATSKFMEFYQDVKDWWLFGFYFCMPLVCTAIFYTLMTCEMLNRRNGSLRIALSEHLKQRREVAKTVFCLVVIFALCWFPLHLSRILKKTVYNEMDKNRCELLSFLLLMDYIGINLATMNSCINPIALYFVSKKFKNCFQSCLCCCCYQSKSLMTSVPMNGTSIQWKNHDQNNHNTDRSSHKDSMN
Method: as §1, §2

Sequence of Dopaminereuptake (Q01959 whole entry): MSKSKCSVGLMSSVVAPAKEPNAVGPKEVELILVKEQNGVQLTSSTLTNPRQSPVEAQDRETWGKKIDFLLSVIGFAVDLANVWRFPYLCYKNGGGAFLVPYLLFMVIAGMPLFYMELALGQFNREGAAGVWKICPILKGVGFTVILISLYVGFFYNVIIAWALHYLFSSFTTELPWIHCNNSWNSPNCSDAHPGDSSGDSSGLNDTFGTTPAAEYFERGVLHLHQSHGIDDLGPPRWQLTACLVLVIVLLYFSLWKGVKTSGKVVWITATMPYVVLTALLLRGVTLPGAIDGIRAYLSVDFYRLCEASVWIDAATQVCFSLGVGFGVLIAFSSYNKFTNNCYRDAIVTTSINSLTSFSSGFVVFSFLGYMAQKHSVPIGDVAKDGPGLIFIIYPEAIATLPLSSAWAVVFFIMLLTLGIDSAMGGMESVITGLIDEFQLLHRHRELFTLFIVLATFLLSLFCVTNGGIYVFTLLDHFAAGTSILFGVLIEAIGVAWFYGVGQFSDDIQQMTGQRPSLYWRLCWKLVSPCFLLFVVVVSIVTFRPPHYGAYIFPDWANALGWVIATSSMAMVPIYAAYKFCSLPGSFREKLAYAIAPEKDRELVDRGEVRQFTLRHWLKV

With `Nc1cc2cccc(N3CCNCC3)c2oc1=O` [Compound 1, 3-amino-8-(1-piperazinyl)-2H-1-benzopyran-2-one] the Ki (Dopaminereuptake) was > 1000 nM, the Ki (Neuropeptide Y1) was > 1000 nM and the Ki (κ-opiate) was > 1000 nM. The Ki (5-HT4) was > 1000 nM, the Ki (LTB4) was > 10000 nM and the Ki (Endothelin-ETB) was > 1000 nM. For the same compound, the Ki (α1B-adrenergic) was > 1000 nM, the Ki (Dopamine-D1) was > 1000 nM and the Ki (5-HTreuptake) was > 1000 nM. For the same compound, the Ki (Dopamine-D4) was > 1000 nM, the ED50 (DBA/2 mice; ip, 0.5 h, read-out: ED50 Tonic extension, i.p. administration, 30 minutes after drug administration) was 0.66 mg/kg and the ED50 (DBA/2 mice; ip, 0.5 h, i.p. administration, 30 minutes after drug administration, read-out: ED50 Clonic seizures) was 3.7 mg/kg. The ED50 (DBA/2 mice; ip, 0.5 h, i.p. administration, 30 minutes after drug administration, read-out: ED50 Wild running) was 39 mg/kg, the ED50 (DBA/2 mice; ip, 1 h, i.p. administration, 60 minutes after drug administration, read-out: ED50 Clonic seizures) was 1.9 mg/kg and the ED50 (DBA/2 mice; ip, 1 h, i.p. administration, 60 minutes after drug administration, read-out: ED50 Tonic extension) was 0.26 mg/kg. For the same compound, the ED50 (DBA/2 mice; ip, 1 h, i.p. administration, 60 minutes after drug administration, read-out: ED50 Wild running) was 20.5 mg/kg, the ED50 (DBA/2 mice; po, 0.5 h, p.o. administration, 30 minutes after drug administration, read-out: ED50 Clonic seizures) was 4.91 mg/kg and the ED50 (DBA/2 mice; po, 0.5 h, read-out: ED50 Tonic extension, p.o. administration, 30 minutes after drug administration) was 1.19 mg/kg. The ED50 (DBA/2 mice; po, 1 h, p.o. administration, 60 minutes after drug administration, read-out: ED50 Clonic seizures) was 1.34 mg/kg, the ED50 (DBA/2 mice; po, 1 h, p.o. administration, 60 minutes after drug administration, read-out: ED50 Tonic extension) was 0.27 mg/kg and the behavioural changes (DBA/2 mice; i.p. administration) was “At none of the dosages tested”. The behavioural changes (DBA/2 mice; oral administration) was “At none of the dosages tested”, the Ki (Neuropeptide Y2) was > 1000 nM and the Ki (5-HT1A) was 0.25 nM. For the same compound, the Ki (5-HT2B) was 320 nM and the Ki (Endothelin-ETA) was > 1000 nM.
